Tests used:
[1] = Hydrolysis of thiosuccinimide / chemical stability of linker and conjugates, LC-MS; details: for Time to complete hydrolysis of thiosuccinimide: pH 9.6, carbonate-diluted reaction mixture, LC-MS
human GLP-1R = target: T1, human GLP-1R (Homo sapiens, UniProt P43220); assay: GLP-1 receptor activation, cAMP response element-luciferase reporter in BHK cells; type: cell-based; details: for Statistical significance of EC50 difference at human GLP-1 receptor: between human GLP-1, peptide 4 and peptide 5, Student's unpaired t-test, n=6; for EC50: stably transfected BHK cells over-expressing human GLP-1R, CRE-luciferase, 3 h at 37°C, assay buffer with 1% ovalbumin, 12-point 3.5-fold dilution, n=6, kind of +/- not stated
T1 construct: expressed in transfected cells; host or cells: BHK cells (stably transfected, with CRE-firefly luciferase reporter)
Procedure: (§1) Receptor activation data was collected utilizing stably transfected BHK cells over-expressing either the human GLP-1R or GcgR and firefly luciferase reporter gene linked to the cAMP response element. The cells were maintained in continuous culture in DMEM supplemented with 10% HI FBS, 300 ug/mL hygromycin, and 500 ug/mL G418 at 37°C with 5% CO2. Cells were plated in the supplemented DMEM at 5,000 cells per well in 96 well poly-D-Lysine coated Corning BioCoat plates and incubated overnight at 37°C with 5% CO2. After the overnight incubation, the media was removed from the cell plates, washed once with DPBS, and 50uL of the assay buffer (DMEM without phenol red, 10 mM Hepes, 1x Glutamax, 1% ovalbumin, and 0.1% Pluronic F-68) was added to the plate. In a separate 96 well plate, the test compounds were serially diluted by 3.5-fold across the row of the plate to create a 12-point dilution curve. […] After the incubation, the assay plates were washed once in DPBS. Following the wash, 100 uL of DPBS was added to each well of the plates followed by 100 uL of the steadylite plus reagent (PerkinElmer). The assay plates were covered to protect from light, incubated at room temperature with shaking at 250 rpm for 30 minutes and read using a microtiter plate reader. The data was plotted using GraphPad Prism 9.0.1 with the nonlinear regression log(agonist) vs. response analysis to obtain the EC50 for each compound. Additionally, GraphPad Prism was used to complete the statistical analysis of the EC50 values with n=6 was using the Student’s unpaired t-test analysis.

human GcgR = target: T2, human GcgR (Homo sapiens, UniProt P47871); assay: Glucagon receptor activation, cAMP response element-luciferase reporter in BHK cells; type: cell-based; details: for Statistical significance of EC50 difference at human glucagon receptor: between peptide 4 and peptide 5, Student's unpaired t-test, n=6; for EC50: stably transfected BHK cells over-expressing human GcgR, CRE-luciferase, 3 h at 37°C, assay buffer with 1% ovalbumin, 12-point 3.5-fold dilution, n=6, kind of +/- not stated
T2 construct: expressed in transfected cells; host or cells: BHK cells (stably transfected, with CRE-firefly luciferase reporter)
Procedure: as §1

[2] = test system: human GLP-1 and glucagon receptors; assay: Glucagon and GLP-1 receptor activation, both receptors together (summary statements); type: cell-based; details: heterodimers of glucagon and GLP-1 analogs; conclusion
Procedure: as §1, with “The data was plotted using GraphPad Prism 9.0.1 with the nonlinear regression log(agonist) vs. response analysis to obtain the EC50 for each compound. Additionally, GraphPad Prism was used to complete the statistical analysis of the EC50 values with n=6 was using the Student’s unpaired t-test analysis.” left out

[3] = pH 9.6

T2 sequence (P47871 26-477): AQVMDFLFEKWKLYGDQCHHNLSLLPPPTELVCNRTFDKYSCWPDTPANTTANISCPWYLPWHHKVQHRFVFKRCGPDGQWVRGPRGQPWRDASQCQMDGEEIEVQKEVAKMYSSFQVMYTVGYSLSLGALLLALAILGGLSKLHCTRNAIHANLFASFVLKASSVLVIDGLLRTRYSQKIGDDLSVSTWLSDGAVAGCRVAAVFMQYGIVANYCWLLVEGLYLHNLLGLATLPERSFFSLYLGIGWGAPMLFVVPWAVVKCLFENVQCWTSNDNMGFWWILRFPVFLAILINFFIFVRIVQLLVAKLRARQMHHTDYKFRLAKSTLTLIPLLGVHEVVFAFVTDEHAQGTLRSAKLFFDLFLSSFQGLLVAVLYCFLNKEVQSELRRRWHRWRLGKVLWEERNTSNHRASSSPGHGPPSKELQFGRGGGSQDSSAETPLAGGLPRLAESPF
T1 sequence (P43220 24-463): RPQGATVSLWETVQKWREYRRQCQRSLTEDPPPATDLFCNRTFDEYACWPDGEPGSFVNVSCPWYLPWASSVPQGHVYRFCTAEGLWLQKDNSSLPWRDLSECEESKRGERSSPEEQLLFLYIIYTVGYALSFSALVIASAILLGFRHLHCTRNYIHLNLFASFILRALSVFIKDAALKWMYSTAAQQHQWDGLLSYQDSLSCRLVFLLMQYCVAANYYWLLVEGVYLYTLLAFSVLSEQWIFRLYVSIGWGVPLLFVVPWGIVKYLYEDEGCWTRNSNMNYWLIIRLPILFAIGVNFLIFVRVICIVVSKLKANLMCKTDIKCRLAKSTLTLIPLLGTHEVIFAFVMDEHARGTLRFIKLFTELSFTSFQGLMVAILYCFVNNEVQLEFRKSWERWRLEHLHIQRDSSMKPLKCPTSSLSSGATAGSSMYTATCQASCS

| Compound | Stability of linker ([1]; pH range of 6.0-8.3, compared with the self-hydrolysable maleimido linker) | Statistical significance of EC50 difference at human GLP-1 receptor (human GLP-1R) | Potency in stimulating cAMP at GLP-1 receptors, in words (human GLP-1R; compared with native GLP-1, BHK cells, human GLP-1R) | EC50 (human GLP-1R) [pM] | Thiosuccinimide hydrolysis at pH 8.3 ([1]; pH 8.3, prolonged alkylation time) | Time to complete hydrolysis of thiosuccinimide ([1]; 37°C) [h] | Time to complete hydrolysis of thiosuccinimide ([1]; room temperature) | Potency at human GCG receptor, in words (human GcgR; BHK cells, human GcgR, reduced versus native human glucagon, comparable between peptides 4 and 5) | Statistical significance of EC50 difference at human glucagon receptor (human GcgR) | EC50 (human GcgR) [pM] | GLP-1 receptor activity relative to glucagon [2] | Degradation of the conjugate during hydrolysis [3] |
| --- | --- | --- | --- | --- | --- | --- | --- | --- | --- | --- | --- | --- |
| O=C(CI)NCCN1C(=O)C=CC1=O [Linker 1, N-(2-(2,5-dioxo-2,5-dihydro-1H-pyrrol-1-yl)ethyl)-2-iodoacetamide] | enhanced stability |  |  |  |  |  |  |  |  |  |  |  |
| CC[C@H](C)[C@H](NC(=O)[C@H](Cc1ccccc1)NC(=O)[C@H](CCC(=O)O)NC(=O)[C@H](CCCCN)NC(=O)[C@H](C)NC(=O)[C@H](C)NC(=O)[C@H](CCC(N)=O)NC(=O)[C@H](CCC(=O)O)NC(=O)[C@H](CCC(=O)O)NC(=O)[C@H](CC(C)C)NC(=O)[C@H](Cc1ccc(O)cc1)NC(=O)[C@H](CO)NC(=O)[C@H](CO)NC(=O)[C@@H](NC(=O)[C@H](CC(=O)O)NC(=O)[C@H](CO)NC(=O)[C@@H](NC(=O)[C@H](Cc1ccccc1)NC(=O)[C@@H](NC(=O)CNC(=O)[C@H](CCC(=O)O)NC(=O)C(C)(C)NC(=O)[C@@H](N)Cc1c[nH]cn1)[C@@H](C)O)[C@@H](C)O)C(C)C)C(=O)N[C@@H](C)C(=O)N[C@@H](Cc1c[nH]c2ccccc12)C(=O)N[C@@H](CC(C)C)C(=O)N[C@H](C(=O)N[C@@H](CCCCN)C(=O)NCC(=O)NCC(=O)N1CCC[C@H]1C(=O)N[C@@H](CO)C(=O)N[C@@H](CO)C(=O)NCC(=O)N[C@@H](C)C(=O)N1CCC[C@H]1C(=O)N1CCC[C@H]1C(=O)N1CCC[C@H]1C(=O)N[C@@H](CO)C(=O)N[C@@H](CSCC(=O)NCCN1C(=O)CC(SC[C@H](NC(=O)[C@H](CO)NC(=O)[C@@H]2CCCN2C(=O)[C@@H]2CCCN2C(=O)[C@@H]2CCCN2C(=O)[C@H](C)NC(=O)CNC(=O)[C@H](CO)NC(=O)[C@H](CO)NC(=O)[C@@H]2CCCN2C(=O)CNC(=O)CNC(=O)[C@H](CC(N)=O)NC(=O)[C@H](CCSC)NC(=O)[C@H](CC(C)C)NC(=O)[C@H](Cc2c[nH]c3ccccc23)NC(=O)[C@H](CCC(N)=O)NC(=O)[C@@H](NC(=O)[C@H](Cc2ccccc2)NC(=O)[C@H](CC(=O)O)NC(=O)[C@H](CCC(N)=O)NC(=O)[C@H](C)NC(=O)[C@H](CCCNC(=N)N)NC(=O)[C@H](CCCNC(=N)N)NC(=O)[C@H](CO)NC(=O)[C@H](CC(=O)O)NC(=O)[C@H](CC(C)C)NC(=O)[C@H](Cc2ccc(O)cc2)NC(=O)[C@H](CCCCN)NC(=O)[C@H](CO)NC(=O)[C@H](Cc2ccc(O)cc2)NC(=O)[C@H](CC(=O)O)NC(=O)[C@H](CO)NC(=O)[C@@H](NC(=O)[C@H](Cc2ccccc2)NC(=O)[C@@H](NC(=O)CNC(=O)[C@H](CCC(N)=O)NC(=O)[C@H](CO)NC(=O)[C@@H](N)Cc2c[nH]cn2)[C@@H](C)O)[C@@H](C)O)C(C)C)C(N)=O)C1=O)C(N)=O)C(C)C (stereo partly shown) [Peptide 4] |  | no statistical significance | comparable potency to native GLP-1 | 4.68 ± 1.53 | did not result in sufficient thiosuccinimide hydrolysis | ≤ 1 | approximately 12 hours | reduced but comparable potency | no statistical significance | 607 ± 428 | much enhanced GLP-1 receptor activity relative to glucagon |  |
| CC[C@H](C)[C@H](NC(=O)[C@H](Cc1ccccc1)NC(=O)[C@H](CCC(=O)O)NC(=O)[C@H](CCCCN)NC(=O)[C@H](C)NC(=O)[C@H](C)NC(=O)[C@H](CCC(N)=O)NC(=O)[C@H](CCC(=O)O)NC(=O)[C@H](CCC(=O)O)NC(=O)[C@H](CC(C)C)NC(=O)[C@H](Cc1ccc(O)cc1)NC(=O)[C@H](CO)NC(=O)[C@H](CO)NC(=O)[C@@H](NC(=O)[C@H](CC(=O)O)NC(=O)[C@H](CO)NC(=O)[C@@H](NC(=O)[C@H](Cc1ccccc1)NC(=O)[C@@H](NC(=O)CNC(=O)[C@H](CCC(=O)O)NC(=O)C(C)(C)NC(=O)[C@@H](N)Cc1c[nH]cn1)[C@@H](C)O)[C@@H](C)O)C(C)C)C(=O)N[C@@H](C)C(=O)N[C@@H](Cc1c[nH]c2ccccc12)C(=O)N[C@@H](CC(C)C)C(=O)N[C@H](C(=O)N[C@@H](CCCCN)C(=O)NCC(=O)NCC(=O)N1CCC[C@H]1C(=O)N[C@@H](CO)C(=O)N[C@@H](CO)C(=O)NCC(=O)N[C@@H](C)C(=O)N1CCC[C@H]1C(=O)N1CCC[C@H]1C(=O)N1CCC[C@H]1C(=O)N[C@@H](CO)C(=O)N[C@@H](CSCC(=O)NCCNC(=O)C(CC(=O)O)SC[C@H](NC(=O)[C@H](CO)NC(=O)[C@@H]1CCCN1C(=O)[C@@H]1CCCN1C(=O)[C@@H]1CCCN1C(=O)[C@H](C)NC(=O)CNC(=O)[C@H](CO)NC(=O)[C@H](CO)NC(=O)[C@@H]1CCCN1C(=O)CNC(=O)CNC(=O)[C@H](CC(N)=O)NC(=O)[C@H](CCSC)NC(=O)[C@H](CC(C)C)NC(=O)[C@H](Cc1c[nH]c2ccccc12)NC(=O)[C@H](CCC(N)=O)NC(=O)[C@@H](NC(=O)[C@H](Cc1ccccc1)NC(=O)[C@H](CC(=O)O)NC(=O)[C@H](CCC(N)=O)NC(=O)[C@H](C)NC(=O)[C@H](CCCNC(=N)N)NC(=O)[C@H](CCCNC(=N)N)NC(=O)[C@H](CO)NC(=O)[C@H](CC(=O)O)NC(=O)[C@H](CC(C)C)NC(=O)[C@H](Cc1ccc(O)cc1)NC(=O)[C@H](CCCCN)NC(=O)[C@H](CO)NC(=O)[C@H](Cc1ccc(O)cc1)NC(=O)[C@H](CC(=O)O)NC(=O)[C@H](CO)NC(=O)[C@@H](NC(=O)[C@H](Cc1ccccc1)NC(=O)[C@@H](NC(=O)CNC(=O)[C@H](CCC(N)=O)NC(=O)[C@H](CO)NC(=O)[C@@H](N)Cc1c[nH]cn1)[C@@H](C)O)[C@@H](C)O)C(C)C)C(N)=O)C(N)=O)C(C)C (stereo partly shown) [Peptide 5] |  | no statistical significance |  | 4.85 ± 4.29 |  |  |  |  | no statistical significance | 323 ± 187 |  | without detectable degradation |

From article PMC8416343, “A Facile Procedure for One-Pot Stable Conjugation of Two Proglucagon Cysteine-Containing Peptide Analogs” (Frontiers in Endocrinology, 2021)
